In the experiment the test system is HEK293 cells. Put plainly: Viability assay of HEK293 cells (CellTiter-Glo luminescent cell viability assay). It is filed as cell-based, human. The note with it: 7 days (168 h) incubation, 3 μM to 0.00015 μM. As to the method: Viability Assay of HEK293 Cells
A viability assay was performed using the CellTiter-Glo® Luminescent Cell Viability Assay (see Promega Corporation's Technical No. 288, pp. 1-11 [revised February 2004] which is hereby incorporated by reference in its entirety). This assay is a homogeneous method of determining the number of viable cells in culture based on quantitation of the ATP present, an indicator of metabolically active cells. The assay is designed for use with multiwell formats, making it ideal for automated high-throughput screening (HTS), cell proliferation and cytotoxicity assays. The homogeneous assay procedure involves adding a single reagent (containing luciferase, luciferan substrate, and buffer) directly to cells cultured in serum-supplemented medium. Cell washing, removal of medium and multiple pipetting steps are not required. The system detects as few as 15 cells/well in a 384-well format in 10 minutes after adding reagent and mixing.
The homogeneous “add-mix-measure” format results in cell lysis and generation of a luminescent signal proportional to the amount of ATP present. The amount of ATP is directly proportional to the number of cells present in culture. The above-referenced assay generates a “glow-type” luminescent signal, produced by the luciferase reaction, which has a half-life generally greater than five hours, depending on cell type and medium used. The extended half-life eliminates the need to use reagent injectors and provides flexibility for continuous or batch mode processing of multiple plates. […]
HEK293 cells (human embryonic kidney cell line transformed by Adenovirus 5 fragments, ATCC-No. CRL 1573) were cultivated in Dulbecco's Modified Eagle Medium (D-MEM) (1×) liquid (high glucose) (which includes L-Alanyl-L-Glutamine [a stabilized a form of L-Glutamine], 4500 mg/L glucose, and 110 mg/L sodium pyruvate) from Invitrogen Corporation (Invitrogen Catalog Number 31966-021 [now 10569-010] which is hereby incorporated by reference in its entirety), 5% Fetal Calf Serum (FCS, Sigma Cat-No. F4135 [FBS] which is hereby incorporated by reference in its entirety), and 100 Units/ml penicillin/100 μg/ml streptomycin (=Pen/Strep from Invitrogen Cat. No. 15140, which is hereby incorporated by reference in its entirety). […] After 7 days the above viability assay was performed in accordance with the following steps: • Step 1: The cell-plate was equilibrated to room temperature for approximately 30 minutes and than the assay reagent (containing luciferase, luciferan substrate, and buffer) was added. • Step 2: The contents were carefully mixed for 15 minutes to induce cell lysis. • Step 3: After 45 minutes the luminescent signal was measured in Victor 2, (scanning multiwell spectrophotometer, Wallac). […]

Experimental findings from patent US7288557B2, “Triazole derivatives” (Hoffmann-La Roche Inc., priority 2004, dated 2007) are described below.

Molecules are shown by their SMILES.

By IC50 is commonly meant the concentration at which inhibition is half-maximal. Low values mean inhibition by little substance, high ones a need for much substance. Consider `O=C(CCCn1ccnn1)c1ccc(OCc2coc(/C=C/c3ccc(SC(F)(F)F)cc3)n2)cc1` [Example 3, 4-[1,2,3]Triazol-1-yl-1-(4-{2-[(E)-2-(4-trifluoromethylsulfanyl-phenyl)-vinyl]-oxazol-4-ylmethoxy}-phenyl)-butan-1-one], for which the IC50 (Homo sapiens) stood at 29.9 nM.

`O=C(CCCn1ccnn1)c1ccc(OCc2coc(/C=C/c3ccc(OC(F)(F)F)cc3)n2)cc1` [Example 1, 4-[1,2,3]Triazol-1-yl-1-(4-{2-[(E)-2-(4-trifluoromethoxy-phenyl)-vinyl]-oxazol-4-ylmethoxy}-phenyl)-butan-1-one] returned a concentration for half-maximal inhibition (IC50) (Homo sapiens) of 17.9 nM. `OC(CCCn1ccnn1)c1ccc(OCc2coc(/C=C/c3ccc(OC(F)(F)F)cc3)n2)cc1` (racemic) [Example 2, (rac)-4-[1,2,3]Triazol-1-yl-1-(4-{2-[(E)-2-(4-trifluoro-methoxyphenyl)-vinyl]-oxazol-4-ylmethoxy}-phenyl)-butan-1-ol]: the IC50 came to 21.1 nM. The compound `O=C(CCCn1ccnn1)c1ccc(OCc2coc(C=Cc3ccc(C(F)(F)F)cc3)n2)cc1` [Reference compound, 4-[1,2,3]Triazol-1-yl-1-(4-{2-[2-(4-trifluoromethyl-phenyl)-vinyl]-oxazol-4-ylmethoxy}-phenyl)-butan-1-one, reference compound] registered an IC50 (Homo sapiens) of 164 nM.
